From the supplement of paper PMC8617591

What was measured:
[1] = tested on: Mycobacterium tuberculosis Erdman (autoluminescent); assay: total FIC50 (Loewe) at 50% inhibition, three-drug combination (log2); higher = more antagonistic
Procedure: (§1)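 DiaMOND equipotent three-drug combination dose responses (10 doses, 1.5- or 2-fold spacing, centred on IC90) against autoluminescent M. tuberculosis Erdman in 8 in vitro models. Read-out is OD600, or luminescence for the intracellular and dormancy models, normalised to untreated wells. Hill-fit Einf, AUC25 and GRinf are potency metrics; FIC50 and FIC90 are total Loewe fractional inhibitory concentrations as log2 (negative = synergy).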

[2] = tested on: Mycobacterium tuberculosis Erdman (autoluminescent); assay: total FIC90 (Loewe) at 90% inhibition, three-drug combination (log2); higher = more antagonistic
Procedure: as §1

[3] = tested on: Mycobacterium tuberculosis Erdman (autoluminescent); assay: Einf, fitted maximum growth inhibition of three-drug combination (fraction); higher = stronger maximal inhibition
Procedure: as §1

[4] = tested on: Mycobacterium tuberculosis Erdman (autoluminescent); assay: AUC25, normalised area under dose response up to IC25 (three-drug combination) (fraction (0-1)); higher = more potent at low dose
Procedure: as §1

[5] = tested on: Mycobacterium tuberculosis Erdman (autoluminescent); assay: GRinf, maximum normalised growth rate inhibition (three-drug combination) (unitless (-1 to 1)); higher = less effect (negative = killing)
Procedure: as §1

CC[C@@H](CO)NCCN[C@@H](CC)CO [ethambutol] + NNC(=O)c1ccncc1 [isoniazid] + COc1c(N2C[C@@H]3CCCN[C@@H]3C2)c(F)cc2c(=O)c(C(=O)O)cn(C3CC3)c12 [moxifloxacin]
Conditions | AUC25, [4] | Einf, [3] | GRinf, [5] | total FIC50, [1] | total FIC90, [2]
in vitro model: acidic pH 5.7, time point: constant (~7 days, model-specific) | 0.0955 | 0.722 | -0.273 | -0.309 | –
in vitro model: acidic pH 5.7, time point: terminal (~4-5 doublings, model-specific) | 0.0597 | 0.933 | -0.253 | 0.821 | 0.326
in vitro model: intracellular J774, time point: constant = terminal | – | 0.976 | -0.437 | – | -0.746

Conditions | AUC25, [4] | Einf, [3] | GRinf, [5] | total FIC50, [1] | total FIC90, [2]
in vitro model: butyrate, time point: constant (~7 days, model-specific) | 0.0852 | 0.938 | -0.0732 | 0.655 | –
in vitro model: butyrate, time point: terminal (~4-5 doublings, model-specific) | 0.0658 | 0.974 | -0.0933 | 0.598 | 0.445
in vitro model: cholesterol 0.05 mM, time point: constant (~7 days, model-specific) | 0.119 | 0.798 | -0.268 | 0.425 | –
in vitro model: cholesterol 0.05 mM, time point: terminal (~4-5 doublings, model-specific) | 0.0714 | 0.92 | 0.0114 | 1.23 | 0.826
in vitro model: cholesterol-high 0.2 mM, time point: constant (~7 days, model-specific) | 0.0564 | 0.94 | -0.315 | 0.863 | –
in vitro model: cholesterol-high 0.2 mM, time point: terminal (~4-5 doublings, model-specific) | 0.0472 | 1 | -0.686 | 1.21 | 0.977
in vitro model: dormancy (butyrate + nitrate, low O2), time point: constant (~7 days, model-specific) | 0.119 | 0.851 | 0.356 | 0.357 | –
in vitro model: dormancy (butyrate + nitrate, low O2), time point: terminal (~4-5 doublings, model-specific) | 0.125 | 0.986 | -0.134 | -0.452 | 0.658
in vitro model: standard 7H9 glycerol, time point: constant = terminal | 0.0677 | 0.975 | -0.186 | 0.205 | 0.328
in vitro model: valerate, time point: constant (~7 days, model-specific) | 0.0908 | 0.876 | -0.0258 | 0.301 | –
in vitro model: valerate, time point: terminal (~4-5 doublings, model-specific) | 0.0784 | 0.953 | 0.0174 | 0.421 | 0.19

CC[C@@H](CO)NCCN[C@@H](CC)CO [ethambutol] + NNC(=O)c1ccncc1 [isoniazid] + NC(=O)c1cnccn1 [pyrazinamide]
Conditions | AUC25, [4] | Einf, [3] | GRinf, [5] | total FIC50, [1] | total FIC90, [2]
in vitro model: acidic pH 5.7, time point: constant (~7 days, model-specific) | 0.0856 | 0.755 | -0.322 | 0.219 | –
in vitro model: acidic pH 5.7, time point: terminal (~4-5 doublings, model-specific) | 0.076 | 0.953 | -0.269 | 0.788 | -0.0381
in vitro model: intracellular J774, time point: constant = terminal | – | 0.988 | -0.458 | – | 0.0195

Conditions | AUC25, [4] | Einf, [3] | GRinf, [5] | total FIC50, [1] | total FIC90, [2]
in vitro model: butyrate, time point: constant (~7 days, model-specific) | 0.0862 | 0.936 | -0.0472 | 0.362 | –
in vitro model: butyrate, time point: terminal (~4-5 doublings, model-specific) | 0.0571 | 0.956 | 0.000899 | 0.43 | 0.0924
in vitro model: cholesterol 0.05 mM, time point: constant (~7 days, model-specific) | 0.115 | 0.804 | -0.282 | – | –
in vitro model: cholesterol 0.05 mM, time point: terminal (~4-5 doublings, model-specific) | 0.119 | 0.953 | -0.377 | 0.635 | –
in vitro model: cholesterol-high 0.2 mM, time point: constant (~7 days, model-specific) | 0.0628 | 0.921 | -0.27 | 0.837 | –
in vitro model: cholesterol-high 0.2 mM, time point: terminal (~4-5 doublings, model-specific) | 0.0569 | 1 | -0.8 | 0.879 | 0.821
in vitro model: dormancy (butyrate + nitrate, low O2), time point: constant (~7 days, model-specific) | 0.0979 | 0.822 | 0.394 | -0.294 | –
in vitro model: dormancy (butyrate + nitrate, low O2), time point: terminal (~4-5 doublings, model-specific) | 0.104 | 0.972 | -0.0582 | 0.22 | 1.09
in vitro model: standard 7H9 glycerol, time point: constant = terminal | 0.063 | 0.862 | 0.233 | 0.587 | –
in vitro model: valerate, time point: constant (~7 days, model-specific) | 0.069 | 0.819 | 0.124 | 0.411 | –
in vitro model: valerate, time point: terminal (~4-5 doublings, model-specific) | 0.0469 | 0.898 | 0.113 | 0.582 | 0.569

CC[C@@H](CO)NCCN[C@@H](CC)CO [ethambutol] + NNC(=O)c1ccncc1 [isoniazid] + O=[N+]([O-])c1cn2c(n1)OC[C@@H](OCc1ccc(OC(F)(F)F)cc1)C2 [pretomanid]
Conditions | AUC25, [4] | Einf, [3] | GRinf, [5] | total FIC50, [1] | total FIC90, [2]
in vitro model: acidic pH 5.7, time point: constant (~7 days, model-specific) | 0.121 | 0.841 | -0.764 | 0.401 | –
in vitro model: acidic pH 5.7, time point: terminal (~4-5 doublings, model-specific) | 0.0806 | 0.968 | -0.36 | 0.77 | 0.544
in vitro model: intracellular J774, time point: constant = terminal | – | 0.996 | -0.562 | – | -0.84

Conditions | AUC25, [4] | Einf, [3] | GRinf, [5] | total FIC50, [1] | total FIC90, [2]
in vitro model: butyrate, time point: constant (~7 days, model-specific) | 0.0954 | 0.941 | -0.0462 | 0.443 | –
in vitro model: butyrate, time point: terminal (~4-5 doublings, model-specific) | 0.0496 | 0.966 | -0.0497 | 0.439 | 0.012
in vitro model: cholesterol 0.05 mM, time point: constant (~7 days, model-specific) | 0.11 | 0.715 | -0.203 | 0.668 | –
in vitro model: cholesterol 0.05 mM, time point: terminal (~4-5 doublings, model-specific) | 0.0657 | 0.858 | 0.0963 | 0.823 | –
in vitro model: cholesterol-high 0.2 mM, time point: constant (~7 days, model-specific) | 0.0675 | 0.881 | -0.113 | 1.17 | –
in vitro model: cholesterol-high 0.2 mM, time point: terminal (~4-5 doublings, model-specific) | 0.0388 | 0.996 | -0.623 | 1.18 | 1.18
in vitro model: dormancy (butyrate + nitrate, low O2), time point: constant (~7 days, model-specific) | 0.162 | 0.915 | 0.106 | 0.0212 | –
in vitro model: dormancy (butyrate + nitrate, low O2), time point: terminal (~4-5 doublings, model-specific) | 0.105 | 0.982 | -0.213 | 0.237 | 0.398
in vitro model: standard 7H9 glycerol, time point: constant = terminal | 0.0742 | 0.924 | 0.0732 | 0.498 | –
in vitro model: valerate, time point: constant (~7 days, model-specific) | 0.109 | 0.867 | 0.0667 | 0.146 | –
in vitro model: valerate, time point: terminal (~4-5 doublings, model-specific) | 0.0768 | 0.92 | 0.0915 | 0.406 | –
